Assay results as given in US10787436B2, “Inhibitors of cyclin-dependent kinase 7 (CDK7)” (Dana-Farber Cancer Institute, Inc., priority 2012, dated 2020).
Read-outs that look alike come from different tables or passages of the source.

Key:
[1] = system: panel of >300 diverse cancer cell lines; experiment: Cancer cell line panel profiling, alamarBlue, 72 hours; format: cell-based, human
Method: At indicated time points, cellular lysates were harvested at the indicated times points and immunoblotted for the indicated proteins. […] Anti-proliferative effects were determined using cell titer glo analysis. […] Anti-proliferative effects were determined using alamarBlue® analysis. […] Anti-proliferative effects were determined using cell titer glo analysis. […] Dose: i.v. 1 mg/kg and p.o. 10 mg/kg.
(§1) Proliferation assays were conducted over a 48-72 hour time period (as noted). […] Cancer cell line profiling was performed over a 72 time period using Alamar Blue reagent.
CDK7 inhibitors display strong antiproflierative effects in leukemia and lymphoma cancer cells. However, a better definition of the breadth of their therapeutic potential in other cell types has not been reported. […] The rationale for examining such a large panel of human cancer cell lines is based on the fact that there is substantial genetic heterogeneity among human tumor cells, even with the same histological origins. In general, the data reveal a bimodal distribution with cell lines displaying exquisite sensitivity or apparent complete insensitivity to the compound.

Hs822T = experiment: Proliferation assay, CellTiter-Glo, 72 hour; format: cell-based; settings: Ewing's sarcoma cell line, read-out: Inhibition of proliferation, Hs822T
[2] = system: Jurkat and Loucy leukemia cell lines; experiment: Anti-proliferative effect, cell titer glo, 72 hours; format: cell-based
Method: Precipitated proteins were washed and probed for CDK7.
as §1
The phenylamino-pyrimidine (PAP) core scaffold is a “privileged” ATP-site directed pharmacophore with the most famous example being imatinib, a Bcr-Abl inhibitor approved to treat several cancers including Chronic Myelogenous Leukemia. Numerous PAP derivatives have been reported as potent inhibitors of various CDKs; however, efforts to achieve greater selectivity amongst the CDK family members have been hindered by the high sequence and structural similarity of CDKs. […] In an effort to explore broadly which CDKs might be targetable by a covalent inhibitor, a library of acrylamide-modified PAPs was built, and the library was subject to cell proliferation as well broad kinase selectivity profiling using the Kinativ chemical proteomics approach.

MCF10A = experiment: Proliferation assay, CellTiter-Glo, 72 hour; format: cell-based; settings: non-tumorigenic breast epithelial cell line, read-out: Inhibition of proliferation, MCF10A
Jurkat = Jurkat (proliferation, CellTiter-Glo); format: cell-based; settings: read-out: Calculated IC50, Jurkat
143B = experiment: Proliferation assay, CellTiter-Glo, 72 hour; format: cell-based; settings: osteosarcoma cell line, read-out: Inhibition of proliferation, 143B
MLK3 = MLK3 (Homo sapiens (Human), UniProt Q16584); experiment: Life Technologies LanthaScreen Eu kinase assay, MLK3; format: binding; settings: read-out: Calculated IC50, MLK3
Sequence of MLK3 (Q16584 whole entry): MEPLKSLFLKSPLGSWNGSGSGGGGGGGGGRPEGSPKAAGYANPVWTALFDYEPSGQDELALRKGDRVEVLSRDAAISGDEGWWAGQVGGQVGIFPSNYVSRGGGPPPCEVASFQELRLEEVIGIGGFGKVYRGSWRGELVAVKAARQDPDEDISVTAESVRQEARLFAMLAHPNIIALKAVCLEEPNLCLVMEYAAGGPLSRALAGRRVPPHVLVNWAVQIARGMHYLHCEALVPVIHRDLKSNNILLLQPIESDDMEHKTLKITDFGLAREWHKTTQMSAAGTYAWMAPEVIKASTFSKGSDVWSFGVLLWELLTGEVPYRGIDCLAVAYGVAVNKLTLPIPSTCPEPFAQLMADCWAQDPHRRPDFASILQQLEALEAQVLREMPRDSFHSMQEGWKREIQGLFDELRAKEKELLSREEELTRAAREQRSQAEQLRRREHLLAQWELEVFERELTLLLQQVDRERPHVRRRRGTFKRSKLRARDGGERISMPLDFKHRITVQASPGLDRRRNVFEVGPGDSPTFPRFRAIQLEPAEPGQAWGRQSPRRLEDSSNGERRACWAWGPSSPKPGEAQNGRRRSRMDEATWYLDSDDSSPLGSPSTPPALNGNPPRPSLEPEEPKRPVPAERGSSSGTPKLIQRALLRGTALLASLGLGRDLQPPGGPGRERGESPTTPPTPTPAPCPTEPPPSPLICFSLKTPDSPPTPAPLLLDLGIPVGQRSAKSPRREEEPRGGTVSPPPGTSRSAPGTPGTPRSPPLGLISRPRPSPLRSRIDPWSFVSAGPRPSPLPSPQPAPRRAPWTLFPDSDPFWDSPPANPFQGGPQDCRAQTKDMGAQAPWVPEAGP

T47D = experiment: Proliferation assay, CellTiter-Glo, 72 hour; format: cell-based; settings: breast cancer cell line, read-out: Inhibition of proliferation, T47D
MV4-11 = experiment: Proliferation assay, CellTiter-Glo, 72 hour; format: cell-based; settings: blood cancer cell line, read-out: Inhibition of proliferation, MV4-11
Hs863T = experiment: Proliferation assay, CellTiter-Glo, 72 hour; format: cell-based; settings: Ewing's sarcoma cell line, read-out: Inhibition of proliferation, Hs863T
hTERT-HME1 = experiment: Proliferation assay, CellTiter-Glo, 72 hour; format: cell-based; settings: immortalized normal mammary epithelial cell line, read-out: Inhibition of proliferation, hTERT-HME1
CDK1/cyclin B = CDK1/cyclin B (Homo sapiens (Human), UniProt P06493); experiment: Life Technologies Z'-Lyte kinase assay, CDK1; format: biochemical; settings: read-out: Calculated IC50, CDK1/cyclin B
Sequence of CDK1/cyclin B (P06493 whole entry): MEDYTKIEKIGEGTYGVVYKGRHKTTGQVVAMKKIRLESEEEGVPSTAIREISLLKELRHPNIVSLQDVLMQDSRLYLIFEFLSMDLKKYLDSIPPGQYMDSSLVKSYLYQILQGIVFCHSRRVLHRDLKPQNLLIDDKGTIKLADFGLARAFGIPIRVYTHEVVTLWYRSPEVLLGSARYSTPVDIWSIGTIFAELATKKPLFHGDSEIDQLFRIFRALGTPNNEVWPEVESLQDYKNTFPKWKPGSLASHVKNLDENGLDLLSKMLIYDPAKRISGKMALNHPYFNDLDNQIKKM
Sequence of CDK1/cyclin B (P14635 whole entry partner): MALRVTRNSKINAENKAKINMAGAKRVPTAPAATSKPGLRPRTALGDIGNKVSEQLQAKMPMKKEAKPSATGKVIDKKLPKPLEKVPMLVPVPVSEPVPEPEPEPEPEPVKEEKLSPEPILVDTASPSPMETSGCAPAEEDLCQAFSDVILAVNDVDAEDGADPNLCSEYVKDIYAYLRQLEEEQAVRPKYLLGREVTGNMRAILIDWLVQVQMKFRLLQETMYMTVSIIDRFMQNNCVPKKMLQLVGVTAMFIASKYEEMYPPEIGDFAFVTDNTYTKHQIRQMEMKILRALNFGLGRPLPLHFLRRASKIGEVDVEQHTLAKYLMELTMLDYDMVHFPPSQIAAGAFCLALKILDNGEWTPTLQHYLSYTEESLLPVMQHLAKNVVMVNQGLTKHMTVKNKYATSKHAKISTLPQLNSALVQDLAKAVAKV

[3] = system: multiple myeloma cell lines; experiment: Anti-proliferative effect in multiple myeloma cell lines with or without stromal cells, cell titer glo, 48-hour; format: cell-based; settings: 48-hour treatment
Method: Clinical isolates of CLL were cultured with compounds of Formula (I) or flavopiridol and assessed for cell death after a 24 hour time course by Annexin V staining. […] Anti-proliferative effect was measured using cell titer glo analysis.
as §1

[4] = target: CDK7 (recombinant CAK complex) (Homo sapiens (Human), UniProt P50613); experiment: In vitro kinase assay with recombinant CAK complex, with and without pre-incubation; format: biochemical; settings: 25 μM ATP, 45 minutes at 30° C.
Sequence of CDK7 (recombinant CAK complex) (P50613 whole entry): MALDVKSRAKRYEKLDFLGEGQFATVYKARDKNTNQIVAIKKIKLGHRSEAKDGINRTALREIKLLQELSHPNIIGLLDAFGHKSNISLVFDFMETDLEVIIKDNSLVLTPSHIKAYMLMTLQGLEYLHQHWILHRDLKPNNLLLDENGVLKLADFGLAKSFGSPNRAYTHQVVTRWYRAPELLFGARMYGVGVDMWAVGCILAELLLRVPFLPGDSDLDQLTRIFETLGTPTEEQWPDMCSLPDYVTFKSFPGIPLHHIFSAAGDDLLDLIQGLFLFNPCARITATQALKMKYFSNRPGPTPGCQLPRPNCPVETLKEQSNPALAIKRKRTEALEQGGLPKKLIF
Sequence of CDK7 (recombinant CAK complex) (P51946 whole entry partner): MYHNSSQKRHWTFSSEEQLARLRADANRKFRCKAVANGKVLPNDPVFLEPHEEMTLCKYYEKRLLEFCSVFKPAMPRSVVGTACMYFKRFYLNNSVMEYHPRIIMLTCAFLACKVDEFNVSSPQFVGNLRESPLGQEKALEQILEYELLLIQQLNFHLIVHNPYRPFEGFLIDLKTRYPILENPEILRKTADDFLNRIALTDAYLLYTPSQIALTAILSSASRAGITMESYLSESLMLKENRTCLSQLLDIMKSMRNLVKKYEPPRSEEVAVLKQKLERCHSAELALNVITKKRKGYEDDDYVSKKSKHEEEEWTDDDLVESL
Sequence of CDK7 (recombinant CAK complex) (P51948 whole entry partner): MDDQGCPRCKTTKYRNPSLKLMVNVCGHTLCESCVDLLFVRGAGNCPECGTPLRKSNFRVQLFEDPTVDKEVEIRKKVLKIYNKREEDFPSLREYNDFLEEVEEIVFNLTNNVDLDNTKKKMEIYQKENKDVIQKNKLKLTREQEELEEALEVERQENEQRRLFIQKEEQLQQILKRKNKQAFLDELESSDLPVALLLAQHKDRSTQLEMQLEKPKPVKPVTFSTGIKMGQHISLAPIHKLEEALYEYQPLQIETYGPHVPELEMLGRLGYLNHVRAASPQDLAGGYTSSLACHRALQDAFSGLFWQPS
Method: Cellular lysates were then probed with antibodies recognizing the Ser-2, Ser-5, and Ser-7 CTD phosphoepitopes. […] At each time point cells were lysed, and the cellular lysates were probed using antibodies as described herein. […] Cells were allowed to grow in medium without inhibitor for 0 to 6 hours. At each time point cells were lysed, and the cellular lysates were probed using antibodies as described herein. […] The kinase reaction was then allowed to proceed for 45 minutes at 30° C.
In vitro kinase assays with immunoprecipitated proteins (or recombinant CAK complexes) were performed as follows. Kinase reactions were performed in 25 μL of final volume of reaction buffer (50 mM Hepes, pH 7.5, 150 mM NaCl, 10 mM MgCl2, 5% glycerol, 25 μM ATP, and 10 μCi of [γ-32P]ATP). Each reaction contained 1 μg of RNAP II. Incubation was at 30° C. for 30-45 min. Reactions were terminated by addition of 5 μL of 5×SDS-PAGE sample buffer and incubated at 95° C. for 5 min. Reactions were analyzed by SDS-PAGE, and the dried gel was exposed to film or PhosphorImager plate.
Covalent kinase inhibitors have several characteristics that functionally differentiate themselves from their reversible counterparts. […] Washout of compound I-23R, following a 4-hour administration led to the recovery of RNAP II CTD phosphorylation within 1 hour (FIG. 2C). […]

**Q.** Which results are given for CN(C)C/C=C/C(=O)Nc1ccc(C(=O)Nc2cccc(Nc3ncc(Cl)c(-c4c[nH]c5ccccc45)n3)c2)cc1 [Formula I-23]?
**A.** IC50 ([1]; panel of >300 cancer cell lines, read-out: IC50 values in 24% of cell lines): > 2500 nM; IC50 ([1]; read-out: IC50s in 94% (132/140) of leukemia cell lines): < 200 nM; IC50 ([1]; read-out: IC50s in all (48/48) lymphoma cell lines): < 150 nM; IC50 ([1]; read-out: IC50 values in 70% of cell lines, panel of >300 cancer cell lines): < 200 nM; IC50 (Hs822T): < 500 nM; Inhibition of proliferation of Jurkat and Loucy leukemia cell lines [2]: potently inhibits proliferation; IC50 (MCF10A): < 500 nM; IC50 (Jurkat): < 100 nM; IC50 (143B): > 5000 nM; IC50 (MLK3): < 100 nM; IC50 (T47D): > 5000 nM; IC50 (MV4-11): < 500 nM; IC50 (Hs863T): 500 to 5000 nM; IC50 (hTERT-HME1): < 500 nM; IC50 (CDK1/cyclin B): 100 to 1000 nM; Anti-proliferative activity in MM cell lines [3]: highly effective anti-proliferative activity; Effect of pre-incubation with recombinant CAK complex prior to addition of ATP [4]: dramatic increase in CDK7 inhibitory activity
